In patent US7030087B2, “Synthetic approach to designed chemical structures” (priority 1996, dated 2006):

B1: bactericidal/permeability increasing polypeptide (protein, UniProt P17213 32-487, looked up)
Bactericidal …: VNPGVVVRISQKGLDYASQQGTAALQKELKRIKIPDYSDSFKIKHLGKGHYSFYSMDIREFQLPSSQISMVPNVGLKFSISNANIKISGKWKAQKRFLKMSGNFDLSIEGMSISADLKLGSNPTSGKPTITCSSCSSHINSVHVHISKSKVGWLIQLFHKKIESALRNKMNSQVCEKVTNSVSSELQPYFQTLPVMTKIDSVAGINYGLVAPPATTAETLDVQMKGEFYSENHHNPPPFAPPVMEFPAAHDRMVYLGLSDYFFNTAGLVYQEAGVLKMTLRDDMIPKESKFRLTTKFFGTFLPEVAKKFPNMKIQIHVSASTPPHLSVQPTGLTFYPAVDVQAFAVLPNSSLASLFLIGMHTTGSMEVSAESNRLVGELKLDRLLLELKHSNIGPFPVELLQDIMNYIVPILVLPRVNEKLQKGFPLPTPARVQLYNVVLQPHQNFLLFGADVVYK
notes: purified in three column-chromatography steps

Legend:
P. aeruginosa = assay: Bactericidal activity assay; format: cell-based, Pseudomonas aeruginosa type 1; conditions: for Bactericidal Activity, % killing: 1.2 × 10^−7 M Peptide, 5 × 105 P. aeruginosa; for Bactericidal Activity, % killing at the effective dose: at the Ed for the same peptide; for Bactericidal Activity, Ed, Effective M dose: dose at which the % in brackets was found
Text: Bacteria: P. aeruginosa type 1 is a clinical isolate maintained in the laboratory. The isolate remains a smooth strain and was serotyped by the scheme of Homma. The Pseudomonas strain was maintained by monthly transfer on blood agar plates.
The peptides can be assayed for bactericidal activity against a variety of organisms such as Pseudomonas aeruginosa type 1, P. cepacia ATCC 25608, E. coli B, and Staphylococcus aureus 502A by standard methods.
Pseudomonas aeruginosa type 1 is a clinical isolate. The isolate remains a smooth strain and was serotyped by the scheme of Homma (Jpn. J. Exp. Med. 46:329, 1976). A rough strain, E. coli B and S. aureus 502A were obtained from Paul Quie, University of Minnesota (Minneapolis, Minn.). The characteristics of the S. aureus strain have been described by Shinefield et al. (Amer. J. Dis. Chil. 105:646, 1963). Pseudomonas cepacia ATCC 25608 can be purchased from the ATCC. S. aureus and E. coli were maintained on nutrient agar plates and the Pseudomonas strains were maintained on blood agar plates.
Pyrogen-free solutions were used throughout the assay and all methods that follow. Log phase bacteria were prepared from a culture in brain heart infusion broth (Hovde et al. Infect. Immun. 54:142–148, 1986) and bacteria were washed and resuspended in saline with adjustment to an optical density at 650 nm to provide a yield of about 3×10^8 CFU/ml. Bacteria were diluted 1:10 in 0.08M citrate phosphate buffer, pH 5.6 or pH 7.0, for use in the assay. S. aureus rapidly lost viability in the pH 5.6 buffer and was studied only at pH 7.0. Bactericidal activity was determined by dose response over peptide concentrations ranging from about […] to about 4.1×10^−9M. Bactericidal activity was determined by dose response, preferably determining LD50 by linear regression.

[1] = tested on: endotoxin from E. coli 055:B5; assay: Limulus amoebocyte lysate assay (E-TOXATE), endotoxin neutralization; format: biochemical; conditions: for Endotoxin Neutralization, % neutralization: 5.0 × 10^−6 M Peptide; for Endotoxin Neutralization, % neutralization / Endotoxin Neutralizing Activity, % neutralization: 0.02 U (0.2 pg) endotoxin from E. coli 055:B5; for Endotoxin Neutralizing Activity, % neutralization: 5.0 × 10^−5 M peptide
Protocol: The peptides were tested for their ability to neutralize endotoxin. Quantitative endotoxin activities for these peptides were measured by Limulus amoebocyte lysate assay.
Limulus amoebocyte lysate assay: The ability of synthetic peptides to neutralize endotoxin was detected with the E-TOXATE kit manufactured by Sigma Chemicals (St. Louis, Mo.). […] Peptide or B/PI was incubated with LPS at room temperature for 5 min in 100 ul of a 1:2 dilution of pyrogen-free saline (pH 6.4). The reaction was started by addition of 100 ul of amoebocyte lysate and the final volume was 200 ul. Assuming a 10,000 molecular weight for LPS, the approximate molar ration of B/PI:LPS at neutralization was 3000 to 1.
The peptides were tested according to the method provided above. […] BG38L was used as a positive control in these experiments.

[2] = Table 4, dose at which the % in brackets was found

Row | Molecule | Bactericidal Activity, % killing (P. aeruginosa) | Bactericidal Activity, % killing at the effective dose (P. aeruginosa) | Bactericidal Activity, Ed, Effective M dose (P. aeruginosa) | Endotoxin Neutralization, % neutralization ([1]; Table 4) | Endotoxin Neutralization, % at the effective dose ([1]; Table 4, at the Ed) | Endotoxin Neutralization, Ed, Effective M dose [1, 2] | Endotoxin Neutralizing Activity, % neutralization ([1]; Table 3) | bactericidal activity (in words) (P. aeruginosa) | Endotoxin Neutralization, % at the effective dose ([1]; Table 3, at the ED printed in the same cell) | Endotoxin neutralization, ED, Effective M dose ([1]; Table 3, dose at which the % in brackets was found) | approximate molar ratio B/PI:LPS at neutralization ([1]; assuming a 10,000 molecular weight for LPS)
1 | SIQDLNVSMKLFRKQAKWKILVKLNDGRELSLD [βpep-17] | 0% | 40.1% | 960 nM | 100% | 28.9% | 1.2 µM |  |  |  |  | 
2 | KFIVTLRVIKAGPHSPTAQIIVELKNGRKLSLD [βpep-5] | 7.4, n = 7% |  |  | 70.3, n = 3% |  |  | 70.3, n = 3% |  |  |  | 
3 | SIQKLNVSMKLFRKQAKWKIIVKLNDGRELSLD [βpep-19] | 62.5, n = 2% |  |  | 0% | 12.4% | 16 µM |  | greatest bactericidal activity |  |  | 
4 | SIQDLNVSMKLFRKQAKWKIILKLNDGRELSLD [βpep-15] | 0% | 23.9% | 960 nM | 48.1 n = 1% |  |  |  |  |  |  | 
5 | SIQDLKVSMKLFRKQAKWKIIVKLNDGRELSLD [βpep-18] | 18.8, n = 1% |  |  | 100% | 30.2% | 1.2 µM |  |  |  |  | 
6 | ANIKLSVEMKLFCRHLKCKIIVKLNDGRELSLD [βpep-10] | 0% | (20.9), n = 7% | 960 nM | 100% | 25.2% | 1.2 µM |  |  |  |  | 
7 | SIQDLNLSMKLFRKQAKWKIIVKLNDGRELSLD [βpep-22] | 35.5, n = 3% |  |  | 100% | 21.3% | 1.2 µM |  | greatest bactericidal activity |  |  | 
8 | ANIKLSVEMKLFCY^DWKVCKHVKLNDGRELSLD [βpep-11] | 0% | (48.0), n = 4% | 960 nM | 100% | 29.5% | 1.2 µM | 100% |  | 29.5% | 1.2 µM | 
9 | ANIKLSVKWKAQKRFLKMSIIVKLNDGRELSLD [βpep-9] | 0% | (47.4), n = 11% | 960 nM | 100% | 32.3% | 1.2 µM |  |  |  |  | 
10 | ANIKLSVEMKFFKRHLKWKIIVKLNDGRELSLD [βpep-12] | 0% | (49.1), n = 5% | 960 nM | 100% | 29.5% | 1.2 µM |  |  |  |  | 
11 | SIQDLNVSMKLFRKQAKWKINVKLNDGRELSLD [βpep-4] | 37.6, n = 3% |  |  | 14.7, n = 3% |  |  |  | greatest bactericidal activity |  |  | 
12 | ANIKLSVKWKAQKRFLKMSINVDLSDGRELSLD [βpep-2] | 18.8, n = 6% |  |  | 55.3, n = 5% |  |  |  |  |  |  | 
13 | SIQDLNVSLKLFRKQAKWKIIVKLNDGRELSLD [βpep-21] | 13.0, n = 1% |  |  | 100% | 40.3% | 1.2 µM |  |  |  |  | 
14 | HIKELQVRWRAQKRFLRMSIIVKLNDGRELSLD [βpep-6] | 8.2, n = 2% |  |  | 79.3, n = 3% |  |  |  |  |  |  | 
15 | HIKELQVKMKAQKRFLKWSIIVKLNDGRELSLD [βpep-7] | 39.1, n = 2% |  |  | 77.7, n = 2% |  |  |  | greatest bactericidal activity |  |  | 
16 | BG38: BG38L corresponds to amino acids 86–108 of B/PI; positive control (KISGKWKAQKRFLKMSGNFDLSI; UniProt P17213 117-139, looked up, fragment) [reference compound] |  |  |  |  |  |  | 34.4, n = 5% |  |  |  | 
17 | SIQDLNVSMKLFRKQAKWKIIVKLNDGRELSLD [βpep-1] | 32.0, n = 3% |  |  | 42.8, n = 3% |  |  | 42.8, n = 3% | greatest bactericidal activity |  |  | 
18 | SIQDLNVSMXLFRKQAKWKIIVKLNDGRELSLD [βpep-20] | 0% | 0.0% | 480 nM | 100% | 17.1% | 1.2 µM |  |  |  |  | 
19 | ANIKLSVEFKLFKRHLKWKIIFKLNDGREFSLD [βpep-13] | 0% | (19.8), n = 3% | 960 nM | 100% | 22.5% | 1.2 µM |  |  |  |  | 
20 | B1 |  |  |  |  |  |  |  |  |  |  | 3000 to 1
